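48-hour exposure; five concentrations; linearly interpolated endpoints. GI50 marks 50% less growth.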 Active and inactive are the calls of the source. Rule as the data show it: active = GI50 up to about 1.1 µM and inactive = higher.
How the values were obtained:
Test in all cases: NCI anticancer screen, dose series, 48 h
[1] = system: 786-0
[2] = system: CAKI-1
[3] = system: DU-145
[4] = system: HCC 2998
[5] = system: IGROV-1
[6] = system: K562
[7] = system: LOX IMVI
[8] = system: Malme-3M
[9] = system: NCI/ADR-RES
[10] = system: OVCAR-3
[11] = system: OVCAR-5
[12] = system: OVCAR-8
[13] = system: PC-3
[14] = system: RPMI-8226
[15] = system: SF-295
[16] = system: SF-539
[17] = system: SNB-19
[18] = system: SNB-75
[19] = system: UACC-62
[20] = system: UO-31

| SMILES | GI50 [1] | GI50 [2] | GI50 [3] | GI50 [4] | GI50 [5] | GI50 [6] | GI50 [7] | GI50 [8] | GI50 [9] | GI50 [10] | GI50 [11] | GI50 [12] | GI50 [13] | GI50 [14] | GI50 [15] | GI50 [16] | GI50 [17] | GI50 [18] | GI50 [19] | GI50 [20] |
| --- | --- | --- | --- | --- | --- | --- | --- | --- | --- | --- | --- | --- | --- | --- | --- | --- | --- | --- | --- | --- |
| C=CCSc1nc2ccccc2c(=O)n1Cc1ccco1 | > 100 µM (inactive) | > 100 µM (inactive) | > 100 µM (inactive) | > 100 µM (inactive) | > 100 µM (inactive) | > 100 µM (inactive) | > 100 µM (inactive) | > 100 µM (inactive) | 39.4 µM (inactive) | 68.7 µM (inactive) | > 100 µM (inactive) | > 100 µM (inactive) | > 100 µM (inactive) | 37.4 µM (inactive) | > 100 µM (inactive) | > 100 µM (inactive) | > 100 µM (inactive) | 89.1 µM (inactive) | > 100 µM (inactive) | 91.6 µM (inactive) |
| COc1ccc2ccccc2c1C1NC(=O)c2ccccc2N1 (stereo not given) | 1.53 µM (inactive) | 2.62 µM (inactive) | 1.53 µM (inactive) | 1.95 µM (inactive) | 1.72 µM (inactive) | 0.279 µM (active) | 0.995 µM (active) | 0.634 µM (active) | 0.507 µM (active) | 0.398 µM (active) | 3.39 µM (inactive) | 3.03 µM (inactive) | 0.519 µM (active) | 0.659 µM (active) | 0.578 µM (active) | 1.55 µM (inactive) | 2.84 µM (inactive) | 1.32 µM (inactive) | 0.455 µM (active) | 11.3 µM (inactive) |
| CC(C)/C(Cl)=N/OC(=O)Nc1ccc(OC(F)(F)F)cc1 | 6.81 µM (inactive) | 5.2 µM (inactive) | 17.2 µM (inactive) | 16.7 µM (inactive) | 16.5 µM (inactive) | 1.76 µM (inactive) | 2.1 µM (inactive) | 2.48 µM (inactive) | 17 µM (inactive) | 17.9 µM (inactive) | 15.6 µM (inactive) | 18.1 µM (inactive) | 16.1 µM (inactive) | 2.49 µM (inactive) | 18.5 µM (inactive) | 17.3 µM (inactive) | 17.7 µM (inactive) | 15.6 µM (inactive) | 16.3 µM (inactive) | 10.8 µM (inactive) |
| CCOc1cc(C2SCC(=O)N2c2nc3cc4sc(N5C(=O)CSC5c5ccc(O)c(OCC)c5)nc4cc3s2)ccc1O (stereo not given) | 31.6 µM (inactive) | > 50.7 µM (inactive) | 17.8 µM (inactive) | > 100 µM (inactive) | 15.9 µM (inactive) | > 64.6 µM (inactive) | 38.3 µM (inactive) | > 68.9 µM (inactive) | 8.2 µM (inactive) | > 100 µM (inactive) | > 100 µM (inactive) | > 68.7 µM (inactive) | 58.5 µM (inactive) | 32.5 µM (inactive) | > 100 µM (inactive) | 15.7 µM (inactive) | 41.3 µM (inactive) | > 100 µM (inactive) | 98.6 µM (inactive) | 21.4 µM (inactive) |
| Cn1c(NNc2ccccc2)cc(=O)[nH]c1=O | 20.5 µM (inactive) | 29.9 µM (inactive) | > 100 µM (inactive) | 27.3 µM (inactive) | 48.2 µM (inactive) | 36.7 µM (inactive) | 20 µM (inactive) | 57.8 µM (inactive) | 35.8 µM (inactive) | 23.2 µM (inactive) | > 100 µM (inactive) | 29.8 µM (inactive) | 38.6 µM (inactive) | 35.3 µM (inactive) | 21.8 µM (inactive) | 29.3 µM (inactive) | > 100 µM (inactive) | 81.7 µM (inactive) | 36.1 µM (inactive) | 28.2 µM (inactive) |
| NC(CCC(=O)O)C(=O)NC(Cc1ccc(N(CCCl)CCCl)cc1)C(=O)O (stereo not given) | > 100 µM (inactive) | 81.8 µM (inactive) | > 100 µM (inactive) | > 100 µM (inactive) | > 100 µM (inactive) | > 100 µM (inactive) | > 100 µM (inactive) | > 100 µM (inactive) | > 100 µM (inactive) | > 100 µM (inactive) | > 100 µM (inactive) | > 100 µM (inactive) | > 100 µM (inactive) | > 100 µM (inactive) | > 100 µM (inactive) | > 100 µM (inactive) | > 100 µM (inactive) | > 100 µM (inactive) | > 100 µM (inactive) | > 100 µM (inactive) |
| CCCC1NC(=O)C(CC(C)C)NC(=O)c2cccc(n2)C(=O)NC(CC(C)C)C(=O)NC(CCC)C(=O)NC(C(=O)OC)CCCCNC1=O (stereo not given) | > 100 µM (inactive) | > 100 µM (inactive) | > 100 µM (inactive) | 11.1 µM (inactive) | 31.1 µM (inactive) | 24 µM (inactive) | 19.2 µM (inactive) | 21.7 µM (inactive) | > 100 µM (inactive) | 41.7 µM (inactive) | > 100 µM (inactive) | 32.8 µM (inactive) | 25.3 µM (inactive) | 14.3 µM (inactive) | 51.1 µM (inactive) | 22 µM (inactive) | 53.5 µM (inactive) | 16.5 µM (inactive) | 21.2 µM (inactive) | > 100 µM (inactive) |
| CCCCCCCCCCCCCCCC(=O)OCC1OC(OC)C(NC(=O)N(CCCl)N=O)C(O)C1O (stereo not given) | 2.01 µM (inactive) | 14.5 µM (inactive) | 19.5 µM (inactive) | 18.4 µM (inactive) | 18.1 µM (inactive) | 10.7 µM (inactive) | 2.36 µM (inactive) | 20.9 µM (inactive) | 13.9 µM (inactive) | 19.6 µM (inactive) | 35 µM (inactive) | 15.5 µM (inactive) | 15.7 µM (inactive) | 21.3 µM (inactive) | 4.48 µM (inactive) | 3.32 µM (inactive) | 14.8 µM (inactive) | 7 µM (inactive) | 2.02 µM (inactive) | 24 µM (inactive) |
| Cc1ccc2occ/c(=N\Nc3ccccc3)c2c1 | 21.2 µM (inactive) | 54 µM (inactive) | 37.8 µM (inactive) | > 100 µM (inactive) | 7.83 µM (inactive) | 25.2 µM (inactive) | 66.2 µM (inactive) | 29.5 µM (inactive) | 39 µM (inactive) | 60.1 µM (inactive) | 59.4 µM (inactive) | 72.9 µM (inactive) | 63.1 µM (inactive) | 25.1 µM (inactive) | 32.2 µM (inactive) | > 100 µM (inactive) | > 100 µM (inactive) | 24.3 µM (inactive) | > 100 µM (inactive) | 70.8 µM (inactive) |
| CCOC(=O)n1ccc2c(C(=O)OC)c(C(=O)OC)cc(/C(=C/C(=O)OC)C(=O)OC)c21 | > 100 µM (inactive) | > 100 µM (inactive) | > 100 µM (inactive) | > 100 µM (inactive) | > 100 µM (inactive) | 26.5 µM (inactive) | > 100 µM (inactive) | > 100 µM (inactive) | > 100 µM (inactive) | > 100 µM (inactive) | > 100 µM (inactive) | > 100 µM (inactive) | > 100 µM (inactive) | 26.5 µM (inactive) | > 100 µM (inactive) | > 100 µM (inactive) | > 100 µM (inactive) | > 100 µM (inactive) | 82.2 µM (inactive) | 92.5 µM (inactive) |

— ChEMBL document CHEMBL1201862, “PubChem BioAssay data set” (2004)
